Among the data in ChEMBL document CHEMBL1909046, “DrugMatrix in vitro pharmacology data” are IC50 and Ki values, retold here.

The nature of assay [1]: DRUGMATRIX: GABAA, Flunitrazepam, Central radioligand binding (ligand: [3H] Flunitrazepam). Conditions: Not Active = under 50% inhibition at 10 µM. In kind it is cell membranes, Rattus norvegicus, Wistar, Brain, Membrane.
For assay [2], the target named is T1, Muscarinic acetylcholine receptor M5 (Homo sapiens, UniProt P08912). Also: in other assays of this panel Not Active means under 50% inhibition at 10 µM.
T1 sequence (P08912 whole entry): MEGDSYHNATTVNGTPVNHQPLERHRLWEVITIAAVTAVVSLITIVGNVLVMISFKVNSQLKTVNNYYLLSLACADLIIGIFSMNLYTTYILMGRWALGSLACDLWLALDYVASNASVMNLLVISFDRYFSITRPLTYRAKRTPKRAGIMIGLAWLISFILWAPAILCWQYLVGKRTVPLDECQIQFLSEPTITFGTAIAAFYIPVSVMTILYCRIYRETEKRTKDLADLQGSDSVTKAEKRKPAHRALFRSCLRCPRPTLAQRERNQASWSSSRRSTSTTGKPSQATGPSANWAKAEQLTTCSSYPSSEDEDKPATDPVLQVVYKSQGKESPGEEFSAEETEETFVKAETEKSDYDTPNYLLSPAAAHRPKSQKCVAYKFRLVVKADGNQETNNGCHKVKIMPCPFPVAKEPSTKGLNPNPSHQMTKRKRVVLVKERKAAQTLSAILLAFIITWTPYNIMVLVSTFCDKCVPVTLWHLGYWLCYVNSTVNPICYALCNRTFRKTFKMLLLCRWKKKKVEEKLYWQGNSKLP
It is filed as cell membranes, CHO-K1, Membrane. To be noted: cho-k1.

Assay [3] in a line: DRUGMATRIX: Sigma2 radioligand binding (ligand: [3H] Ifenprodil). In kind it is cell membranes, Rattus norvegicus, Wistar, Brain, Membrane. Conditions: Not Active = under 50% inhibition at 10 µM.
Assay [4] deals with Tyrosine-protein kinase Fyn (Homo sapiens, UniProt P06241). Briefly: biochemical. In kind it is cell-based, Insect cells.
Chain of Tyrosine-protein kinase Fyn (P06241 whole entry): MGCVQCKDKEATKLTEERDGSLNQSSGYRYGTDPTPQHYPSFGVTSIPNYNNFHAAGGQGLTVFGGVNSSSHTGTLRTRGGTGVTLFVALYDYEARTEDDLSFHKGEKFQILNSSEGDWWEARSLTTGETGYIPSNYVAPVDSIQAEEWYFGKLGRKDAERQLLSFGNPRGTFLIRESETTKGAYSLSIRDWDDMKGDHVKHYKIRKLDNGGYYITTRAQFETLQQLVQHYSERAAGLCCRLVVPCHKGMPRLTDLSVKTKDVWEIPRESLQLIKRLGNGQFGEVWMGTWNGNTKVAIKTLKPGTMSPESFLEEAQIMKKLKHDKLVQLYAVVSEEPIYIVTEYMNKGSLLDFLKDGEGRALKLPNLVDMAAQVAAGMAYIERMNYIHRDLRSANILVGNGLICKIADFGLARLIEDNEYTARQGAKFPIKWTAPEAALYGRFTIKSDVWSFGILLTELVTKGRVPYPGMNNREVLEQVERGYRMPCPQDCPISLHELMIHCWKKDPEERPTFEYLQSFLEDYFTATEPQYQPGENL
For assay [5], the target named is Melanocortin receptor 3 (Homo sapiens, UniProt P41968). In kind it is cell membranes, Membrane. To be noted: hek293. Also: in other assays of this panel Not Active means under 50% inhibition at 10 µM.
Chain of Melanocortin receptor 3 (P41968 whole entry): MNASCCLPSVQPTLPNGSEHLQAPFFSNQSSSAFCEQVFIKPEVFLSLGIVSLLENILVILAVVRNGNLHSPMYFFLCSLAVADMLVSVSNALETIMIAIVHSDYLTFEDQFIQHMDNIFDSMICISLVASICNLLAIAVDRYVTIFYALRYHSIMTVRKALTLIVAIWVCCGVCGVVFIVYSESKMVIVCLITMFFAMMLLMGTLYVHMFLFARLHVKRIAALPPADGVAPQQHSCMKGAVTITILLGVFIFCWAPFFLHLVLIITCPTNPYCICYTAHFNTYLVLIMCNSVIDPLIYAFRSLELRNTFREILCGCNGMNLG
For assay [6], the target named is Sodium-dependent dopamine transporter (Homo sapiens, UniProt Q01959). Briefly: DRUGMATRIX: Dopamine Transporter radioligand binding (ligand: [125I] RTI-55). In kind it is cell membranes, CHO-K1, Membrane. To be noted: cho-k1; Not Active = under 50% inhibition at 10 µM.
Chain of Sodium-dependent dopamine transporter (Q01959 whole entry): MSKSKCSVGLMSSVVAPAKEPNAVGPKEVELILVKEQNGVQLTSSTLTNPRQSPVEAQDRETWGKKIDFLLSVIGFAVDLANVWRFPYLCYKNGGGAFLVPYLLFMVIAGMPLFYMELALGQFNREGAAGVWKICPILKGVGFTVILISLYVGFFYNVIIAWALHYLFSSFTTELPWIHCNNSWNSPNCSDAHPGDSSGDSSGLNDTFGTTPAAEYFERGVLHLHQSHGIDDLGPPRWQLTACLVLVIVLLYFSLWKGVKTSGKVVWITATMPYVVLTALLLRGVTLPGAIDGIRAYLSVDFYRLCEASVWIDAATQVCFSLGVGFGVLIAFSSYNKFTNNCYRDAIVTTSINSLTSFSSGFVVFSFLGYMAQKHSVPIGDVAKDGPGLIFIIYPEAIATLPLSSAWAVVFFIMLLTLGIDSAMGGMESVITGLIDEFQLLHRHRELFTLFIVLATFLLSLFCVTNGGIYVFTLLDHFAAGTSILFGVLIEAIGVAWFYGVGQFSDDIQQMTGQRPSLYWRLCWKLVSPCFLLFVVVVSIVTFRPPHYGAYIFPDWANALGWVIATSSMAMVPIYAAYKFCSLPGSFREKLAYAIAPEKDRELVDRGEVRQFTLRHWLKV
For assay [7], the target named is T2, Caspase-1 (Homo sapiens, UniProt P29466).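 Also: Caspase-1 enzyme inhibition assay with a peptide substrate; in other assays of this panel Not Active means under 50% inhibition at 10 µM.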
T2 sequence (P29466 whole entry): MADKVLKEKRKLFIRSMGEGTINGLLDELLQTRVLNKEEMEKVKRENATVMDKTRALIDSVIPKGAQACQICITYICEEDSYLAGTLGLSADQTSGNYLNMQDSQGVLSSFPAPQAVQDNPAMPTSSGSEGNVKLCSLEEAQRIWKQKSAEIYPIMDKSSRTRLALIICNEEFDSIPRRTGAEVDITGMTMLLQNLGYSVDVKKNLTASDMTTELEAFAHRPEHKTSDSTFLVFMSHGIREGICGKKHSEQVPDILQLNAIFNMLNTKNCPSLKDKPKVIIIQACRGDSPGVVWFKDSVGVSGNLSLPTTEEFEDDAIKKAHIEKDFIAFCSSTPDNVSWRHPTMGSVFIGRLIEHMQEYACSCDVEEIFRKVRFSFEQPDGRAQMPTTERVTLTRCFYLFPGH
Also on record: species or system Escherichia coli.

The target in assay [8] is Melanocortin receptor 5 (Homo sapiens, UniProt P33032). It is filed as cell membranes, HEK293, Membrane. Conditions: hek293. Also: in other assays of this panel Not Active means under 50% inhibition at 10 µM.
Chain of Melanocortin receptor 5 (P33032 whole entry): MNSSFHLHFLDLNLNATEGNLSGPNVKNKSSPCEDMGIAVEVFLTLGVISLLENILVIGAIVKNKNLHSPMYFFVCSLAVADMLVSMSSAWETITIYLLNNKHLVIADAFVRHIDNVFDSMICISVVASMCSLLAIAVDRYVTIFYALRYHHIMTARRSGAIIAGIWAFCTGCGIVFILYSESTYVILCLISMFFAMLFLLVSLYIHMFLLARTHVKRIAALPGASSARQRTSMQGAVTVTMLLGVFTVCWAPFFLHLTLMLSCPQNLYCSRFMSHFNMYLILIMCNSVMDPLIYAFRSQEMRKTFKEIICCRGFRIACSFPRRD
Assay [9] concerns the target Histamine H2 receptor (Homo sapiens, UniProt P25021). It is filed as cell membranes, CHO-K1, Membrane. To be noted: cho-k1. Also: in other assays of this panel Not Active means under 50% inhibition at 10 µM.
Assay [10] concerns the target Insulin receptor (Rattus norvegicus, UniProt P15127). It is filed as cell membranes, Wistar, Liver, Membrane. Also: in other assays of this panel Not Active means under 50% inhibition at 10 µM.
The target of assay [11] is Receptor tyrosine-protein kinase erbB-2 (Homo sapiens, UniProt P04626). Kind of assay: biochemical. It is filed as cell-based, Insect cells.
Assay [12] is described as follows: DRUGMATRIX: Leukotriene, BLT (LTB4) radioligand binding (ligand: [3H]LTB4). It is filed as cell membranes, Membrane. To be noted: u-937; Not Active = under 50% inhibition at 10 µM.
Assay [13] concerns the target 5-hydroxytryptamine receptor 1B (Rattus norvegicus, UniProt P28564). It is filed as cell membranes, Wistar, Cerebral cortex, Membrane. Also: in other assays of this panel Not Active means under 50% inhibition at 10 µM.
The target in assay [14] is T3, Muscarinic acetylcholine receptor M4 (Homo sapiens, UniProt P08173). Also: in other assays of this panel Not Active means under 50% inhibition at 10 µM.
T3 sequence (P08173 whole entry): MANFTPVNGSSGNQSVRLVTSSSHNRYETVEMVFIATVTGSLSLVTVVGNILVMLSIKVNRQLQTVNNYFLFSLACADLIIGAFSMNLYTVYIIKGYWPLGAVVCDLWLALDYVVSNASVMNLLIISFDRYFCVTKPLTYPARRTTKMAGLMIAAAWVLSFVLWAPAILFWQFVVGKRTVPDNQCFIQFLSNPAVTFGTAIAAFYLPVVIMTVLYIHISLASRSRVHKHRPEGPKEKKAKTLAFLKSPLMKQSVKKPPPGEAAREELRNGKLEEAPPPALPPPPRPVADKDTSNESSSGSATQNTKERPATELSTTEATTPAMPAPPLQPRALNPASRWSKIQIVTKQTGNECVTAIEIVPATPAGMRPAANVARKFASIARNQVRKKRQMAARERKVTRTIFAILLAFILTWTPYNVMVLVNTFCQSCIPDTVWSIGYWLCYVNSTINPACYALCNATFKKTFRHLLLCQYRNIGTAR
It is filed as cell membranes, CHO-K1, Membrane. Conditions: cho-k1.

Assay [15] addresses T4, Neutrophil elastase (Homo sapiens, UniProt P08246).
T4 sequence (P08246 whole entry): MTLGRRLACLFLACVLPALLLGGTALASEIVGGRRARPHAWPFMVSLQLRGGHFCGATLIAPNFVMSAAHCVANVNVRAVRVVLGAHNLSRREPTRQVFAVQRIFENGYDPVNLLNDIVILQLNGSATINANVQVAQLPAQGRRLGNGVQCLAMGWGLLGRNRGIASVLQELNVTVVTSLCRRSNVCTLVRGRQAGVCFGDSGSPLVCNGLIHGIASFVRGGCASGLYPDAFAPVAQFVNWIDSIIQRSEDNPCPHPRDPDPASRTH
It is filed as tissue-based.

Chain of Insulin receptor (P15127 27-759 limits assumed): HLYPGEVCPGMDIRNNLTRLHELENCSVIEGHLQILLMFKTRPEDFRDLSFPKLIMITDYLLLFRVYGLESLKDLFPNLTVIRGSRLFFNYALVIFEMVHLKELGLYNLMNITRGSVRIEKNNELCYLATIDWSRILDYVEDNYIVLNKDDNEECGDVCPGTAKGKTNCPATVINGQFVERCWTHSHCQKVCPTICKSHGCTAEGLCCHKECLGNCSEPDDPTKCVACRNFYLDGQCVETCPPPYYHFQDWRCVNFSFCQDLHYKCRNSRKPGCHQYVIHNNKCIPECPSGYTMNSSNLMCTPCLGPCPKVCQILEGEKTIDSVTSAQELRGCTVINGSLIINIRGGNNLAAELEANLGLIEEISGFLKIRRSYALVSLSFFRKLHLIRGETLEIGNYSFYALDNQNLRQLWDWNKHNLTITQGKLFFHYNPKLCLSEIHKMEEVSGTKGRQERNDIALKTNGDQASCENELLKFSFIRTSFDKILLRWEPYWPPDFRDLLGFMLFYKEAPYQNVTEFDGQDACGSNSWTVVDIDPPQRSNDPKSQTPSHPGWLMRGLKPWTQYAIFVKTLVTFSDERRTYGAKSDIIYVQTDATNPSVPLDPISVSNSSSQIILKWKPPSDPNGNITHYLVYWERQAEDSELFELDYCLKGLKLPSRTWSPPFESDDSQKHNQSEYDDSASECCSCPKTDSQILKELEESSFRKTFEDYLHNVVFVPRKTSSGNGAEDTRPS
Chain of Insulin receptor (P15127 764-1383 limits assumed): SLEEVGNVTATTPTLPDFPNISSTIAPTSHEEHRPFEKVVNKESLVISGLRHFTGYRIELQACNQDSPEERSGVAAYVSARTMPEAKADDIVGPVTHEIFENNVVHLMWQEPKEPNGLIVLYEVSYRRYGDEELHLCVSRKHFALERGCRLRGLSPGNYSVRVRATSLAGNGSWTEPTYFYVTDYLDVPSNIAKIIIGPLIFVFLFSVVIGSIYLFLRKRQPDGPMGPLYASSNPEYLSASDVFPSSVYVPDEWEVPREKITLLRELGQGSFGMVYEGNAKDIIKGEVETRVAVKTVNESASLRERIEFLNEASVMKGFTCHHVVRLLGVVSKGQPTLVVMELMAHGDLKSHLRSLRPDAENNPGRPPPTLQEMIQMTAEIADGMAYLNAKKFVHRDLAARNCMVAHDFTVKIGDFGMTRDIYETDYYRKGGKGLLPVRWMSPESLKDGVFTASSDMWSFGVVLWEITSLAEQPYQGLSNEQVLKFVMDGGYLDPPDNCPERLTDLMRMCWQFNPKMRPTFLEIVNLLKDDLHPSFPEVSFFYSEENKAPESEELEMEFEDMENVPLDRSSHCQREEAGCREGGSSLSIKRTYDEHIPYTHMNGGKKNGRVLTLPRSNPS
Chain of 5-hydroxytryptamine receptor 1B (P28564 whole entry): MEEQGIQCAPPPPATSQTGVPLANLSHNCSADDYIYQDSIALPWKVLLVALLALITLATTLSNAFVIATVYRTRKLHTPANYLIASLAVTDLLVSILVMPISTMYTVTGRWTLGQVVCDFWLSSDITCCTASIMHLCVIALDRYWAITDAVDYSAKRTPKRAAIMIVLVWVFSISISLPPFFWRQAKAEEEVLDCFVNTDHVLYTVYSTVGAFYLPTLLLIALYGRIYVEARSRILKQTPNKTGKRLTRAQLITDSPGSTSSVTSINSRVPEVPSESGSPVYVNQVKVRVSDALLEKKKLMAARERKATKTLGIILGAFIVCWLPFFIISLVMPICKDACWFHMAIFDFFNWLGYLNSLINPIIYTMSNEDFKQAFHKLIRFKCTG
Chain of Histamine H2 receptor (P25021 whole entry): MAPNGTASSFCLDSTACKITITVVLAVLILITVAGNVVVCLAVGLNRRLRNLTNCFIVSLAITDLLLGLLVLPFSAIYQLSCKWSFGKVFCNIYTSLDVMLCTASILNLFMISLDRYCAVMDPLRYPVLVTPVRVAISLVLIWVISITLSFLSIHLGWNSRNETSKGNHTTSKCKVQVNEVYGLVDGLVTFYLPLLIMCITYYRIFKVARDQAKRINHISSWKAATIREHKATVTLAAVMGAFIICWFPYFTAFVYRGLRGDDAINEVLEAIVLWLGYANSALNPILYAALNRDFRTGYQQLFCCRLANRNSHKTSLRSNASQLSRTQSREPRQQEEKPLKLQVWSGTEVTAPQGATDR

Usually IC50 stands for the midpoint of a concentration-inhibition curve. Consider `C=CC[C@@H]1/C=C(\C)C[C@H](C)C[C@H](OC)[C@H]2O[C@@](O)(C(=O)C(=O)N3CCCC[C@H]3C(=O)O[C@H](/C(C)=C/[C@@H]3CC[C@@H](O)[C@H](OC)C3)[C@H](C)[C@@H](O)CC1=O)[C@H](C)C[C@@H]2OC` [TACROLIMUS ANHYDROUS], for which the IC50 entry in assay [1], in assay [2], in assay [3], in [4] (insect cells), in assay [5] and in assay [6] was “Not Active” each time. In addition, the IC50 entry in assay [7], in assay [8], in assay [9], in assay [10], in [11] (insect cells) and in assay [12] was “Not Active” in each case. Besides, the IC50 result in assay [13], in assay [14] and in [15] was “Not Active” in each case. In addition, the Ki entry in assay [1], in [3] and in [12] was “Not Active” each time.

`CC(=O)[C@H]1CC[C@H]2[C@@H]3CCC4=CC(=O)CC[C@]4(C)[C@H]3CC[C@]12C` [PROGESTERONE]: the IC50 entry in assay [1], in assay [2], in assay [3], in assay [4] (insect cells), in assay [5] and in assay [6] was “Not Active” each time. The IC50 entry in assay [7], in assay [8], in assay [9], in assay [10], in assay [11] (insect cells) and in assay [12] was “Not Active” each time. Also, the IC50 entry in assay [13], in assay [14] and in assay [15] was “Not Active” each time. Besides, the Ki entry in [1], in assay [3] and in assay [12] was “Not Active” throughout.

For the compound `CN[C@H](CC(C)C)C(=O)N[C@H]1C(=O)N[C@@H](CC(N)=O)C(=O)N[C@H]2C(=O)N[C@H]3C(=O)N[C@H](C(=O)N[C@H](C(=O)O)c4cc(O)cc(O)c4-c4cc3ccc4O)[C@H](O)c3ccc(c(Cl)c3)Oc3cc2cc(c3O[C@@H]2O[C@H](CO)[C@@H](O)[C@H](O)[C@H]2O[C@H]2C[C@](C)(N)[C@H](O)[C@H](C)O2)Oc2ccc(cc2Cl)[C@H]1O` [VANCOMYCIN], the IC50 entry in [1], in [2], in [3], in assay [4] (insect cells), in assay [5] and in [6] was “Not Active” in each case. For the same compound, the IC50 entry in [7], in [8], in assay [9], in [10], in assay [11] (insect cells) and in [12] was “Not Active” in each case. Also, the IC50 entry in [13], in assay [14] and in [15] was “Not Active” each time. Besides, the Ki entry in [1], in assay [3] and in assay [12] was “Not Active” each time.

With `CN(C)[C@@H]1C(O)=C(C(N)=O)C(=O)[C@@]2(O)C(O)=C3C(=O)c4c(O)cccc4[C@@](C)(O)[C@H]3C[C@@H]12` [TETRACYCLINE], the IC50 entry in assay [1], in assay [2], in [3], in [4] (insect cells), in [5] and in assay [6] was “Not Active” in each case. The IC50 result in assay [7], in assay [8], in [9], in assay [10], in assay [11] (insect cells) and in assay [12] was “Not Active” each time. Also, the IC50 entry in assay [13], in assay [14] and in assay [15] was “Not Active” in each case. Further, the Ki result in assay [1], in [3] and in [12] was “Not Active” throughout.

Turning to `CO[C@@H]1[C@@H](O[C@@H]2O[C@H](C)[C@@H](O[C@H]3C[C@@](C)(O)[C@@H](OC(=O)CC(C)C)[C@H](C)O3)[C@H](N(C)C)[C@H]2O)[C@@H](CC=O)C[C@@H](C)[C@@H](O)/C=C/C=C/C[C@@H](C)OC(=O)C[C@H]1O` [KITASAMYCIN], the IC50 result in assay [1], in assay [2], in assay [3], in assay [4] (insect cells), in [5] and in assay [6] was “Not Active” throughout. Further, the IC50 entry in [7], in assay [8], in assay [9], in assay [10], in assay [11] (insect cells) and in assay [12] was “Not Active” throughout. Moreover, the IC50 entry in assay [13], in assay [14] and in [15] was “Not Active” each time. In addition, the Ki result in assay [1], in assay [3] and in assay [12] was “Not Active” throughout.

`Oc1c(I)cc(I)c2cccnc12` [IODOQUINOL]: the IC50 result in assay [1] is “Not Active”; in assay [2], “Not Active”; in [3], “Not Active”; in assay [4] (read-out: IC50) it was 1.57 µM; in [5] it was “Not Active”; in assay [6] it was “Not Active”. The IC50 entry in [7] is “Not Active”; in [8] it was “Not Active”; in assay [9], “Not Active”; in assay [10], “Not Active”; in assay [11] (read-out: IC50), 8.58 µM; in [12], “Not Active”. For the same compound, the IC50 entry in assay [13], in [14] and in [15] was “Not Active” throughout. In addition, the Ki entry in assay [1], in assay [3] and in [12] was “Not Active” throughout.
